Data reported in ChEMBL document CHEMBL4507266, “Data for DCP probe BAY-784” (2021).

Tests used:
[1] = target: Mitogen-activated protein kinase 4 (Homo sapiens) (UniProt P31152); conditions: Compound concentration 1000.0 nM
[2] = target: Calcium/calmodulin-dependent protein kinase kinase 2 (Homo sapiens) (UniProt Q96RR4); conditions: Compound concentration 1000.0 nM
[3] = target: Mitogen-activated protein kinase kinase kinase 14 (Homo sapiens) (UniProt Q99558); conditions: Compound concentration 1000.0 nM
[4] = target: T1, Muscarinic acetylcholine receptor M1 (Homo sapiens) (UniProt P11229); conditions: Compound concentration 10.0 uM
T1 sequence (whole entry): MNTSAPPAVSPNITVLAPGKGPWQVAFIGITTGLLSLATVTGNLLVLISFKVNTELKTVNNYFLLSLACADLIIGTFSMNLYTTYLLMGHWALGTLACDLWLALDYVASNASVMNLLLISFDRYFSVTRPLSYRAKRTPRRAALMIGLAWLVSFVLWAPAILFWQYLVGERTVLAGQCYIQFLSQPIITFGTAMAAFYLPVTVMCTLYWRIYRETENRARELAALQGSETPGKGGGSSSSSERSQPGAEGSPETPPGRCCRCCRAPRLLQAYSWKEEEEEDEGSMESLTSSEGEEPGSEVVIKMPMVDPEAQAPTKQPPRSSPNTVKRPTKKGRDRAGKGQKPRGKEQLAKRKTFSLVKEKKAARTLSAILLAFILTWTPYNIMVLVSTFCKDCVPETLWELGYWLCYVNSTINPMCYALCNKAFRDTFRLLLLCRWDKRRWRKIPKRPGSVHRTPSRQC

[5] = target: Ribosomal protein S6 kinase alpha-5 (Homo sapiens) (UniProt O75582); conditions: Compound concentration 1000.0 nM
Sequence of Ribosomal protein S6 kinase alpha-5 (Homo sapiens) (O75582 whole entry, looked up): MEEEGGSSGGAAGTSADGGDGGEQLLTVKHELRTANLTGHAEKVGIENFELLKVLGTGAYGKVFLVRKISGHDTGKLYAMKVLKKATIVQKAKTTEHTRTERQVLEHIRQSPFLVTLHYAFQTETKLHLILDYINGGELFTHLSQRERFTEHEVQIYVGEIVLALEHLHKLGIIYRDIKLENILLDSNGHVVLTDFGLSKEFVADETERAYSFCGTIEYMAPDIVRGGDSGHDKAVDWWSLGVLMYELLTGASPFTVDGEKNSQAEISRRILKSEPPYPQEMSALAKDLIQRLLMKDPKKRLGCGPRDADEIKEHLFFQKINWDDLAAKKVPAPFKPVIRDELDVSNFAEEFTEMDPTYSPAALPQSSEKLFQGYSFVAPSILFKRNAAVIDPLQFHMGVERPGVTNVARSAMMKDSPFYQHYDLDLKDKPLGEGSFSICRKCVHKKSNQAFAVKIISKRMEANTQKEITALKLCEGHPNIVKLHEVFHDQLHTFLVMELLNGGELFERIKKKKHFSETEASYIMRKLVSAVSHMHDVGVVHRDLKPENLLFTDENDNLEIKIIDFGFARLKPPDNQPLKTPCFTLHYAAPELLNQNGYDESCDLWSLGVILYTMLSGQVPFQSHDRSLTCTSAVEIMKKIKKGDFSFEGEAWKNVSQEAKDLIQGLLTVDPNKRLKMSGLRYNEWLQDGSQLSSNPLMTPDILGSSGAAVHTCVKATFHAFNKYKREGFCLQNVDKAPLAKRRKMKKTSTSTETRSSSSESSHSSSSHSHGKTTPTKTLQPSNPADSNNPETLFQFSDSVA

[6] = target: Ribosomal protein S6 kinase alpha-3 (Homo sapiens) (UniProt P51812); conditions: Compound concentration 1000.0 nM
[7] = target: Mitogen-activated protein kinase kinase kinase 5 (Homo sapiens) (UniProt Q99683); conditions: Compound concentration 1000.0 nM
[8] = target: Serine/threonine-protein kinase ICK (Homo sapiens) (UniProt Q9UPZ9); conditions: Compound concentration 1000.0 nM
Sequence of Serine/threonine-protein kinase ICK (Homo sapiens) (Q9UPZ9 whole entry): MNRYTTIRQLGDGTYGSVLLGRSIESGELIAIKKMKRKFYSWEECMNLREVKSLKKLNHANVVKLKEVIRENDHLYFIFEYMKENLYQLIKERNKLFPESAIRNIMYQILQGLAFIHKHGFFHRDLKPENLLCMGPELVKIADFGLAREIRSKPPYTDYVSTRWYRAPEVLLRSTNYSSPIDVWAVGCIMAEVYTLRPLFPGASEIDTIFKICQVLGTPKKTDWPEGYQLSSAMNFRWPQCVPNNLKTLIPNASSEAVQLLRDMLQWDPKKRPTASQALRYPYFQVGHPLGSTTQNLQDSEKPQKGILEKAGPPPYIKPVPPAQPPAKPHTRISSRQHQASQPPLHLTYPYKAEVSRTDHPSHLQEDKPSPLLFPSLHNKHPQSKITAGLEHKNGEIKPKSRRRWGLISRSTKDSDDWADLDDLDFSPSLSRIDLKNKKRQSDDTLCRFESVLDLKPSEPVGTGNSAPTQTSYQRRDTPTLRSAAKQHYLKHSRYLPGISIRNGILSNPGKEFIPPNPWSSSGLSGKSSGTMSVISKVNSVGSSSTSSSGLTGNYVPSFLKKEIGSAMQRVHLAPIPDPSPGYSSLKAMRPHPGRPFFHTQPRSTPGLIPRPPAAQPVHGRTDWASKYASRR

[9] = target: Serine/threonine-protein kinase MARK1 (Homo sapiens) (UniProt Q9P0L2); conditions: Compound concentration 1000.0 nM
[10] = target: Beta-adrenergic receptor kinase 1 (Homo sapiens) (UniProt P25098); conditions: Compound concentration 1000.0 nM
[11] = target: Serine/threonine-protein kinase TAO3 (Homo sapiens) (UniProt Q9H2K8); conditions: Compound concentration 1000.0 nM
[12] = target: Dual specificity protein kinase CLK2 (Homo sapiens) (UniProt P49760); conditions: Compound concentration 1000.0 nM
Sequence of Dual specificity protein kinase CLK2 (Homo sapiens) (P49760 whole entry, looked up): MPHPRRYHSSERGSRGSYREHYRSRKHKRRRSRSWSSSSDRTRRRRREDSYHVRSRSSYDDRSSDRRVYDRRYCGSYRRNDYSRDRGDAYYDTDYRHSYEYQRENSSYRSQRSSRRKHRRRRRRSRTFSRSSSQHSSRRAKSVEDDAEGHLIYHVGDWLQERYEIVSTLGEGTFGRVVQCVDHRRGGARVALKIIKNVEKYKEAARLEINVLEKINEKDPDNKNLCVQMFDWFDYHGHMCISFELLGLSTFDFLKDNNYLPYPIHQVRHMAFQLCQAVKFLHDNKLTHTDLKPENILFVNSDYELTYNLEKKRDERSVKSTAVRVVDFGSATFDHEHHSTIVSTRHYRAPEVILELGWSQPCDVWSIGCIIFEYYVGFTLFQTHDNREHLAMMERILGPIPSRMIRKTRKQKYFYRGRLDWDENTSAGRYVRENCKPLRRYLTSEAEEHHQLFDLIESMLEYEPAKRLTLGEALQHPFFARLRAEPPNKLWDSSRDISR

[13] = target: 5'-AMP-activated protein kinase catalytic subunit alpha-2 (Homo sapiens) (UniProt P54646); conditions: Compound concentration 1000.0 nM
[14] = test system: Receptor-type tyrosine-protein kinase FLT3 (Homo sapiens), P36888 [K663Q]; conditions: Compound concentration 1000.0 nM
[15] = target: Hormonally up-regulated neu tumor-associated kinase (Homo sapiens) (UniProt P57058); conditions: Compound concentration 1000.0 nM
[16] = target: Discoidin domain-containing receptor 2 (Homo sapiens) (UniProt Q16832); conditions: Compound concentration 1000.0 nM
[17] = target: Protein kinase C eta type (Homo sapiens) (UniProt P24723); conditions: Compound concentration 1000.0 nM
[18] = target: Dual specificity tyrosine-phosphorylation-regulated kinase 1B (Homo sapiens) (UniProt Q9Y463); conditions: Compound concentration 1000.0 nM
[19] = target: Histamine H4 receptor (Homo sapiens) (UniProt Q9H3N8); conditions: Compound concentration 10.0 uM
[20] = target: Mitogen-activated protein kinase 7 (Homo sapiens) (UniProt Q13164); conditions: Compound concentration 1000.0 nM
[21] = target: 5-hydroxytryptamine receptor 2B (Homo sapiens) (UniProt P41595); conditions: Compound concentration 10.0 uM
[22] = target: Ribosomal protein S6 kinase alpha-5 (Homo sapiens) (UniProt O75582); conditions: Compound concentration 1000.0 nM; remark: listed apart in the source
[23] = target: Serine/threonine-protein kinase PRP4 homolog (Homo sapiens) (UniProt Q13523); conditions: Compound concentration 1000.0 nM
Sequence of Serine/threonine-protein kinase PRP4 homolog (Homo sapiens) (Q13523 whole entry): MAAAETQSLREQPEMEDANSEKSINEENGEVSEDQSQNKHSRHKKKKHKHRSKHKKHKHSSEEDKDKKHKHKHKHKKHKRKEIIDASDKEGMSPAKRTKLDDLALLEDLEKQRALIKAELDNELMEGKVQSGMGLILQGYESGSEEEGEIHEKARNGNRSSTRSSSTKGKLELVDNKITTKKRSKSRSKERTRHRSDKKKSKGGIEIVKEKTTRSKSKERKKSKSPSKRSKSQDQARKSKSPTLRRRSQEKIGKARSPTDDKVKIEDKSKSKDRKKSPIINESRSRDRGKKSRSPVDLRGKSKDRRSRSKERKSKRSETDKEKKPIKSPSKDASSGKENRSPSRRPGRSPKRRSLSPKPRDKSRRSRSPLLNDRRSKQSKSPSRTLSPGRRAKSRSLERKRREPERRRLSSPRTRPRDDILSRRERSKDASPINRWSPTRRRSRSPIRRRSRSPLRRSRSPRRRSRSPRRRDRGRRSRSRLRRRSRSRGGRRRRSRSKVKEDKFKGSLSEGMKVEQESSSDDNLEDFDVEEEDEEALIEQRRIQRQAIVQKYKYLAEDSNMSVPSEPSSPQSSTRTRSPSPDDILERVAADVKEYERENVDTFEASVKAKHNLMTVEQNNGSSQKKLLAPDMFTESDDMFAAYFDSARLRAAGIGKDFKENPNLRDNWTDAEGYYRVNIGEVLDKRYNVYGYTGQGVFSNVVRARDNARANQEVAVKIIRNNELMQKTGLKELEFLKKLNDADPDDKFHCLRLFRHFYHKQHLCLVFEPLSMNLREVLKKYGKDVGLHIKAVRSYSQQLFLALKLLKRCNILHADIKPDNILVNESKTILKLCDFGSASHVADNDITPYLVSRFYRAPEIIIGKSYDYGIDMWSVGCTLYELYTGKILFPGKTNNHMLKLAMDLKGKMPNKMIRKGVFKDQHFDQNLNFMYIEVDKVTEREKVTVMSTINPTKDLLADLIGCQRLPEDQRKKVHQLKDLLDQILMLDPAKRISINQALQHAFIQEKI

[24] = test system: Receptor-type tyrosine-protein kinase FLT3 (Homo sapiens), P36888 [UNDEFINED MUTATION]; conditions: Compound concentration 1000.0 nM
[25] = target: Homeodomain-interacting protein kinase 4 (Homo sapiens) (UniProt Q8NE63); conditions: Compound concentration 1000.0 nM
[26] = target: Misshapen-like kinase 1 (Homo sapiens) (UniProt Q8N4C8); conditions: Compound concentration 1000.0 nM
Sequence of Misshapen-like kinase 1 (Homo sapiens) (Q8N4C8 whole entry, looked up): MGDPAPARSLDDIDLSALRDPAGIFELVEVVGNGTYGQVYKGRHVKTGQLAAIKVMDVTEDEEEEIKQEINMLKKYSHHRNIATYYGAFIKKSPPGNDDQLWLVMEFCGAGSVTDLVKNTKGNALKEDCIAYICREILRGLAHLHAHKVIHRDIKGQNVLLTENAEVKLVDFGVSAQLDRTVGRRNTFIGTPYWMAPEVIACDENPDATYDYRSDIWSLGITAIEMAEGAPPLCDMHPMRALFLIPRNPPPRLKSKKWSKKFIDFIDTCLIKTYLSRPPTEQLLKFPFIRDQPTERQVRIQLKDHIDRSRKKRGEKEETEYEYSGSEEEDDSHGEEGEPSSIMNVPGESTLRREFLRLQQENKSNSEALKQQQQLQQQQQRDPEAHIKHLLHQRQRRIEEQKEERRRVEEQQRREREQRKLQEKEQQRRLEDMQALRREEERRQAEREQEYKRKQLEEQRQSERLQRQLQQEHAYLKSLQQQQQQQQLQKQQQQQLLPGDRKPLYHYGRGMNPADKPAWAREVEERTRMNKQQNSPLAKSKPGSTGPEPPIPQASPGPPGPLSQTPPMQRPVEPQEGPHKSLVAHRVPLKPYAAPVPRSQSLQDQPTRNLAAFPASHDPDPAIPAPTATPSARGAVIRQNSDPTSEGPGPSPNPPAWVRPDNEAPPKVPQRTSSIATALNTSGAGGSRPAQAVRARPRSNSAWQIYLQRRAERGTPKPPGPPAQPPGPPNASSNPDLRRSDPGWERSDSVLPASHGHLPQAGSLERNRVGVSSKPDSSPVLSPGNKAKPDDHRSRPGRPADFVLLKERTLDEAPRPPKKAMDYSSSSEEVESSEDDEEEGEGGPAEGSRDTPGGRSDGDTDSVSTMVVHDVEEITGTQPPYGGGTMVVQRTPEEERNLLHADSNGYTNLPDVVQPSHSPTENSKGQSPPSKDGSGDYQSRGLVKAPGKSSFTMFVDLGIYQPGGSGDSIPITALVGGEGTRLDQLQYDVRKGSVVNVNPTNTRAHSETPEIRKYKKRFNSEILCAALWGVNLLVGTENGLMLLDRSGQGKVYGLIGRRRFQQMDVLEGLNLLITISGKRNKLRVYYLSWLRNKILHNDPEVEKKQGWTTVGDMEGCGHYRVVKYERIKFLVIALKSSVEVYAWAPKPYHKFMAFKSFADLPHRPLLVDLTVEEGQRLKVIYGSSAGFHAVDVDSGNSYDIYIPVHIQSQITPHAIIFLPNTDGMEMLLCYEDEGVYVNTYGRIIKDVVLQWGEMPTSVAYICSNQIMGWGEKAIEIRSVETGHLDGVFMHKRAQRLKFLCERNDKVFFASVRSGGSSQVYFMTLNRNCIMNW

[27] = target: Calcium/calmodulin-dependent protein kinase type II subunit gamma (Homo sapiens) (UniProt Q13555); conditions: Compound concentration 1000.0 nM
[28] = test system: Epidermal growth factor receptor (Homo sapiens), P00533 [L858R,T790M]; conditions: Compound concentration 1000.0 nM
[29] = test system: Tyrosine-protein kinase ABL1 (Homo sapiens), P00519 [T315I]; conditions: Compound concentration 1000.0 nM
[30] = target: Atypical kinase COQ8A, mitochondrial (Homo sapiens) (UniProt Q8NI60); conditions: Compound concentration 1000.0 nM
[31] = target: STE20-like serine/threonine-protein kinase (Homo sapiens) (UniProt Q9H2G2); conditions: Compound concentration 1000.0 nM
[32] = target: Hepatocyte growth factor receptor (Homo sapiens) (UniProt P08581); conditions: Compound concentration 1000.0 nM
[33] = test system: Receptor-type tyrosine-protein kinase FLT3 (Homo sapiens), P36888 [UNDEFINED MUTATION]; conditions: Compound concentration 1000.0 nM; remark: listed apart in the source
[34] = target: Ribosomal protein S6 kinase alpha-2 (Homo sapiens) (UniProt Q15349); conditions: Compound concentration 1000.0 nM
[35] = target: Serine/threonine-protein kinase N1 (Homo sapiens) (UniProt Q16512); conditions: Compound concentration 1000.0 nM
[36] = target: Mitogen-activated protein kinase kinase kinase 3 (Homo sapiens) (UniProt Q99759); conditions: Compound concentration 1000.0 nM
[37] = target: Vascular endothelial growth factor receptor 3 (Homo sapiens) (UniProt P35916); conditions: Compound concentration 1000.0 nM
[38] = target: 5-hydroxytryptamine receptor 2A (Homo sapiens) (UniProt P28223); conditions: Compound concentration 10.0 uM

Sequence of Calcium/calmodulin-dependent protein kinase kinase 2 (Homo sapiens) (Q96RR4 2-588 limits assumed): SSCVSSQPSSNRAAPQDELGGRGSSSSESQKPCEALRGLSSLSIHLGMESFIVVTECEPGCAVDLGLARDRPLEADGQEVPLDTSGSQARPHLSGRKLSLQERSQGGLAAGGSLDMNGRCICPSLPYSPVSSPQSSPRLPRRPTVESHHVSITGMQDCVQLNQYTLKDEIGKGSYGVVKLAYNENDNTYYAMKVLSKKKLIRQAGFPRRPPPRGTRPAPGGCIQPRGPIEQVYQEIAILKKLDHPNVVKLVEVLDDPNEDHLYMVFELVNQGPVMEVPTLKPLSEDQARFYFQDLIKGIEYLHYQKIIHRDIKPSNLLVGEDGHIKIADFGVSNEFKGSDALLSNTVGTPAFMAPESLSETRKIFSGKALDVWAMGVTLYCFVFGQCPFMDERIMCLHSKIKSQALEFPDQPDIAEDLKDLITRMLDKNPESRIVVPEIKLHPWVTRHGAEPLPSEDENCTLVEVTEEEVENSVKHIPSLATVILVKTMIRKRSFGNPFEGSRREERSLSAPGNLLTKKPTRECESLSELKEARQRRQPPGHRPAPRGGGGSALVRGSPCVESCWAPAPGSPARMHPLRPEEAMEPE

O=C(NCc1ncc(C(F)(F)F)cc1Cl)c1ccc2c(c1)C1(CCS(=O)(=O)CC1)[C@H](C1CC1)N2S(=O)(=O)c1ccc(F)cc1 [BAY-784]
inactive: residual activity [1] 91% | residual activity [2] 100% | residual activity [3] 100% | inhibition [4] -2.96% | residual activity [5] 95% | residual activity [6] 100% | residual activity [7] 100% | residual activity [8] 100% | residual activity [9] 100% | residual activity [10] 56% | residual activity [11] 99% | residual activity [12] 100% | residual activity [13] 100% | residual activity [14] 100% | residual activity [15] 84% | residual activity [16] 78% | residual activity [17] 100% | residual activity [18] 100% | inhibition [19] -9.53% | residual activity [20] 99% | inhibition [21] -2.53% | residual activity [22] 100% | residual activity [23] 100% | residual activity [24] 76% | residual activity [25] 100% | residual activity [26] 90% | residual activity [27] 100% | residual activity [28] 95% | residual activity [29] 90% | residual activity [30] 96% | residual activity [31] 100% | residual activity [32] 100% | residual activity [33] 81% | residual activity [34] 99% | residual activity [35] 100% | residual activity [36] 74% | residual activity [37] 92% | inhibition [38] -4.7%

O=C(NCc1ncc(C(F)(F)F)cc1Cl)c1ccc2c(c1)C1(CCS(=O)(=O)CC1)[C@@H](C1CC1)N2S(=O)(=O)c1ccc(F)cc1 [BAY-786]
inactive: residual activity [1] 89% | residual activity [2] 83% | residual activity [3] 71% | inhibition [4] -3.7% | residual activity [5] 100% | residual activity [6] 82% | residual activity [7] 100% | residual activity [8] 97% | residual activity [9] 100% | residual activity [10] 80% | residual activity [11] 80% | residual activity [12] 82% | residual activity [13] 100% | residual activity [14] 100% | residual activity [15] 85% | residual activity [16] 67% | residual activity [17] 96% | residual activity [18] 100% | inhibition [19] -6.68% | residual activity [20] 97% | inhibition [21] -2.32% | residual activity [22] 97% | residual activity [23] 84% | residual activity [24] 58% | residual activity [25] 97% | residual activity [26] 85% | residual activity [27] 84% | residual activity [28] 75% | residual activity [29] 84% | residual activity [30] 90% | residual activity [31] 100% | residual activity [32] 81% | residual activity [33] 67% | residual activity [34] 100% | residual activity [35] 100% | residual activity [36] 60% | residual activity [37] 100% | inhibition [38] 5.01%
